Data: US6737383B1, “Herbicidal oxadiazolidines” (priority 1999, dated 2004)

Columns and labels:
[1] = test system: bedstraw; assay: Test B pre/postemergence bedstraw; format: in vivo, Galium aparine; conditions: scale of 0 to 10 where 0 is no effect and 10 is complete control; for Plant response rating, Bedstraw: Preemergence
Outline: (§1)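 Response is a visual 0-to-10 score relative to untreated plants, where 0 means no effect and 10 means complete control, taken twelve to sixteen days after application. Treatments went onto soil at planting and onto foliage of 1- to 4-leaf plants, using a surfactant-containing non-phytotoxic solvent.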

[2] = test system: blackgrass; assay: Test B pre/postemergence blackgrass; format: in vivo, Alopecurus myosuroides
Outline: as §1

[3] = test system: surinam grass; assay: Test B pre/postemergence surinam grass; format: in vivo, Brachiaria decumbens
Outline: as §1

[4] = test system: cocklebur; assay: Test B pre/postemergence cocklebur; format: in vivo, Xanthium strumarium
Outline: as §1

[5] = test system: corn; assay: Test B pre/postemergence corn; format: in vivo, Zea mays
Outline: as §1

[6] = test system: crabgrass; assay: Test B pre/postemergence crabgrass; format: in vivo, Digitaria sanguinalis
Outline: as §1

[7] = test system: soybean; assay: Test B pre/postemergence soybean; format: in vivo, Glycine max; conditions: for Plant response rating, Soybean: scale of 0 to 10 where 0 is no effect and 10 is complete control
Outline: as §1

[8] = test system: sugar beet; assay: Test B pre/postemergence sugar beet; format: in vivo, Beta vulgaris; conditions: for Plant response rating, Sugarbeets: scale of 0 to 10 where 0 is no effect and 10 is complete control
Outline: as §1

[9] = test system: velvetleaf; assay: Test B pre/postemergence velvetleaf; format: in vivo, Abutilon theophrasti; conditions: for Plant response rating, Velvetleaf: scale of 0 to 10 where 0 is no effect and 10 is complete control
Outline: as §1

[10] = test system: wheat; assay: Test B pre/postemergence wheat; format: in vivo, Triticum aestivum; conditions: for Plant response rating, Wheat: scale of 0 to 10 where 0 is no effect and 10 is complete control
Outline: as §1

[11] = test system: wild oat; assay: Test B pre/postemergence wild oat; format: in vivo, Avena fatua; conditions: for Plant response rating, Wild oats: scale of 0 to 10 where 0 is no effect and 10 is complete control
Outline: as §1

[12] = test system: purple nutsedge; assay: Test B pre/postemergence purple nutsedge; format: in vivo, Cyperus rotundus; conditions: for Plant response rating, Nutsedge: scale of 0 to 10 where 0 is no effect and 10 is complete control
Outline: as §1

[13] = test system: rice; assay: Test B flood test rice; format: in vivo, Oryza sativa
Outline: (§2)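 Flood test on plants grown to the 2-leaf stage; treated plants kept in greenhouse twelve to sixteen days, then visually rated against controls on a 0 (no effect) to 10 (complete control) scale.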

[14] = test system: smallflower flatsedge; assay: Test B flood test smallflower flatsedge; format: in vivo, Cyperus difformis
Outline: as §2

[15] = test system: duck salad; assay: Test B flood test duck salad; format: in vivo, Heteranthera limosa
Outline: as §2

[16] = test system: bamyardgrass; assay: Test B flood test barnyardgrass; format: in vivo, Echinochloa crus-galli
Outline: as §2

[17] = Postemergence, Rate 500 g/ha, scale of 0 to 10 where 0 is no effect and 10 is complete control
[18] = Preemergence, Rate 62 g/ha, scale of 0 to 10 where 0 is no effect and 10 is complete control
[19] = Preemergence, Rate 125 g/ha, scale of 0 to 10 where 0 is no effect and 10 is complete control
[20] = Preemergence, Rate 250 g/ha, scale 0 to 10, 0 is no effect, 10 is complete control
[21] = Preemergence, Rate 500 g/ha, scale 0 to 10, 0 is no effect, 10 is complete control
[22] = Rate 62 g/ha, Postemergence, scale 0 to 10 (0 no effect, 10 complete control)
[23] = Rate 125 g/ha, Postemergence, scale 0 to 10, 0 is no effect, 10 is complete control
[24] = Postemergence, Rate 250 g/ha, scale 0 to 10
[25] = Rate 62 g/ha, flood test species, Pre-emergence, visual evaluation after twelve to sixteen days
[26] = Rate 125 g/ha, under heading Pre-emergence, flood test species, visual evaluation after twelve to sixteen days
[27] = Rate 250 g/ha, Pre-emergence (flood test species), scale 0 to 10, 0 is no effect, 10 is complete control
[28] = Rate 500 g/ha, Pre-emergence, flood test species, scale 0 to 10 (0 no effect, 10 complete control)

Compound: CC[Si](C)(C)Cn1c(=O)on(C(=O)N(c2ccc(Cl)cc2)C(C)C)c1=O [Compound 460]
- Bedstraw plant response rating ([1]; Postemergence, Rate 500 g/ha): 8
- Plant response rating, Bedstraw ([1]; Rate 62 g/ha): 0
- Plant response rating, Bedstraw ([1]; Rate 125 g/ha): 0
- Blackgrass plant response rating [2, 17]: 8
- Plant response rating, Blackgrass [2, 18]: 0
- Plant response rating, Blackgrass [2, 19]: 0
- Blackgrass plant response rating [2, 20]: 0
- Blackgrass plant response rating [2, 21]: 3
- Blackgrass plant response rating [2, 22]: 2
- B. signalgrass plant response rating ([3]; Postemergence, Rate 250 g/ha, scale 0 to 10, 0 no effect, 10 complete control): 0
- B. signalgrass plant response rating [3, 17]: 2
- Plant response rating, B. signalgrass [3, 18]: 0
- Plant response rating, B. signalgrass [3, 19]: 0
- B. signalgrass plant response rating [3, 20]: 0
- B. signalgrass plant response rating [3, 21]: 0
- B. signalgrass plant response rating [3, 22]: 0
- B. signalgrass plant response rating [3, 23]: 0
- Cocklebur plant response rating [4, 24]: 0
- Cocklebur plant response rating [4, 17]: 0
- Plant response rating, Cocklebur [4, 18]: 0
- Plant response rating, Cocklebur [4, 19]: 0
- Cocklebur plant response rating [4, 20]: 0
- Cocklebur plant response rating [4, 21]: 0
- Cocklebur plant response rating [4, 22]: 0
- Cocklebur plant response rating [4, 23]: 0
- Corn plant response rating [5, 24]: 0
- Corn plant response rating [5, 17]: 0
- Plant response rating, Corn [5, 18]: 0
- Plant response rating, Corn [5, 19]: 0
- Corn plant response rating [5, 20]: 0
- Corn plant response rating [5, 21]: 2
- Corn plant response rating [5, 22]: 0
- Corn plant response rating [5, 23]: 0
- Crabgrass plant response rating [6, 24]: 9
- Crabgrass plant response rating [6, 17]: 9
- Plant response rating, Crabgrass [6, 18]: 0
- Plant response rating, Crabgrass [6, 19]: 1
- Crabgrass plant response rating [6, 20]: 6
- Crabgrass plant response rating [6, 21]: 9
- Crabgrass plant response rating [6, 22]: 3
- Crabgrass plant response rating [6, 23]: 6
- Soybean plant response rating [7, 24]: 4
- Plant response rating, Soybean ([7]; Preemergence, Rate 62 g/ha): 0
- Plant response rating, Soybean ([7]; Preemergence, Rate 125 g/ha): 0
- Soybean plant response rating [7, 20]: 0
- Soybean plant response rating [7, 21]: 0
- Soybean plant response rating [7, 22]: 3
- Soybean plant response rating [7, 23]: 3
- Sugarbeets plant response rating [8, 24]: 0
- Plant response rating, Sugarbeets ([8]; Preemergence, Rate 62 g/ha): 0
- Plant response rating, Sugarbeets ([8]; Preemergence, Rate 125 g/ha): 0
- Sugarbeets plant response rating [8, 20]: 0
- Sugarbeets plant response rating [8, 21]: 0
- Sugarbeets plant response rating [8, 22]: 0
- Sugarbeets plant response rating [8, 23]: 0
- Velvetleaf plant response rating [9, 24]: 0
- Plant response rating, Velvetleaf ([9]; Preemergence, Rate 62 g/ha): 0
- Plant response rating, Velvetleaf ([9]; Preemergence, Rate 125 g/ha): 0
- Velvetleaf plant response rating [9, 20]: 0
- Velvetleaf plant response rating [9, 21]: 0
- Velvetleaf plant response rating [9, 22]: 0
- Velvetleaf plant response rating [9, 23]: 0
- Wheat plant response rating [10, 24]: 0
- Plant response rating, Wheat ([10]; Preemergence, Rate 62 g/ha): 0
- Plant response rating, Wheat ([10]; Preemergence, Rate 125 g/ha): 0
- Wheat plant response rating [10, 20]: 0
- Wheat plant response rating [10, 21]: 0
- Wheat plant response rating [10, 22]: 0
- Wheat plant response rating [10, 23]: 0
- Wild oats plant response rating [11, 24]: 0
- Plant response rating, Wild oats ([11]; Preemergence, Rate 62 g/ha): 0
- Plant response rating, Wild oats ([11]; Preemergence, Rate 125 g/ha): 0
- Wild oats plant response rating [11, 20]: 0
- Wild oats plant response rating [11, 21]: 0
- Wild oats plant response rating [11, 22]: 0
- Wild oats plant response rating [11, 23]: 0
- Nutsedge plant response rating [12, 24]: 0
- Plant response rating, Nutsedge ([12]; Preemergence, Rate 62 g/ha): 0
- Plant response rating, Nutsedge ([12]; Preemergence, Rate 125 g/ha): 0
- Nutsedge plant response rating [12, 20]: 0
- Nutsedge plant response rating [12, 21]: 0
- Nutsedge plant response rating [12, 22]: 0
- Nutsedge plant response rating [12, 23]: 0
- Plant response rating, Rice (0 to 10 scale, 0 is no effect, 10 is complete control) [13, 25]: 0
- Rice plant response rating (0 to 10 scale, 0 is no effect, 10 is complete control) [13, 26]: 0
- Rice plant response rating [13, 27]: 0
- Rice plant response rating [13, 28]: 0
- Plant response rating, S. Flatsedge (0 to 10 scale, 0 is no effect, 10 is complete control) [14, 25]: 0
- S. Flatsedge plant response rating (0 to 10 scale, 0 is no effect, 10 is complete control) [14, 26]: 0
- S. Flatsedge plant response rating [14, 27]: 0
- S. Flatsedge plant response rating [14, 28]: 0
- Plant response rating, Ducksalad (0 to 10 scale, 0 is no effect, 10 is complete control) [15, 25]: 0
- Ducksalad plant response rating (0 to 10 scale, 0 is no effect, 10 is complete control) [15, 26]: 0
- Ducksalad plant response rating [15, 27]: 0
- Ducksalad plant response rating [15, 28]: 0
- Plant response rating, Barnyardgrass (0 to 10 scale, 0 is no effect, 10 is complete control) [16, 25]: 0
- Barnyardgrass plant response rating (0 to 10 scale, 0 is no effect, 10 is complete control) [16, 26]: 0
- Barnyardgrass plant response rating [16, 27]: 0
- Barnyardgrass plant response rating [16, 28]: 0
